Among the test systems are TK-10 renal; NCI-H226 lung; SW-620 colon; DU-145 prostate; SK-MEL-2 melanoma; U251 CNS; SF-539 CNS; UO-31 renal; SK-MEL-28 melanoma; MOLT-4 leukemia.
Assay in all cases: growth of human tumour cells (NCI), 48 h

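These data come from cells grown in 96-well plates and exposed to compound for 48 hours at five concentrations. Definition used: TGI = concentration required for complete inhibition of growth.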

Turning to `C=C1[C@@H]2CCC3[C@]4(C)C(CC[C@@]5(C)C(=O)O[C@H](O)[C@@H]45)[C@H](O)[C@]3(C2)[C@H]1OC1OC(CO)C(O)C(O)C1O` (some centres undefined), the TGI in the assay on TK-10 renal, in the assay on NCI-H226 lung, in the assay with SW-620 colon, in the assay on DU-145 prostate, with SK-MEL-2 melanoma and in the assay with U251 CNS was more than 50 µM each time. Besides, the TGI in the assay on SF-539 CNS, in the assay with UO-31 renal, in the assay on SK-MEL-28 melanoma and in the assay with MOLT-4 leukemia was more than 50 µM in each case.
In the case of `CN(C)/N=N/c1nc2c(c(=O)n(C)c(=O)n2C)n1CC1CO1` (centres undefined), the TGI was determined as 37.7 µM in the assay with TK-10 renal; 38.3 µM with NCI-H226 lung; 36.8 µM in the assay on SW-620 colon; 37.5 µM in the assay on DU-145 prostate; 23.1 µM in the assay on SK-MEL-2 melanoma; 35.2 µM in the assay on U251 CNS. For the same compound, the TGI is 22.5 µM with SF-539 CNS, 31.3 µM in the assay with UO-31 renal, 59.7 µM with SK-MEL-28 melanoma and more than 100 µM with MOLT-4 leukemia.
As to `CC1=NN2C(=N)/C(=C/c3ccc(F)cc3)C(=O)N=C2S1`, the TGI in the assay on TK-10 renal, in the assay with NCI-H226 lung, in the assay with SW-620 colon, in the assay with DU-145 prostate, with SK-MEL-2 melanoma and in the assay on U251 CNS was more than 100 µM each time. The TGI in the assay with SF-539 CNS, in the assay with UO-31 renal, in the assay on SK-MEL-28 melanoma and in the assay on MOLT-4 leukemia was more than 100 µM throughout.
Consider `Cc1c(C(=O)NNc2ccccc2)n2c(=S)[nH]nc2c2ccccc12`, for which the TGI with TK-10 renal, in the assay on NCI-H226 lung, in the assay with SW-620 colon, in the assay on DU-145 prostate, in the assay with SK-MEL-2 melanoma and in the assay with U251 CNS was more than 100 µM throughout. The TGI in the assay on SF-539 CNS, with UO-31 renal, with SK-MEL-28 melanoma and in the assay with MOLT-4 leukemia was more than 100 µM throughout.
Regarding `CC(C)=CCC[C@@H](C)C1=C(Nc2ccccc2F)C(O)=C(C)C(=O)C1=O`, the TGI in the assay on TK-10 renal was more than 100 µM; with NCI-H226 lung it was 24 µM; in the assay on SW-620 colon, more than 69.1 µM; with DU-145 prostate, more than 100 µM; with SK-MEL-2 melanoma, 42.1 µM; in the assay with U251 CNS it was more than 31.6 µM. In addition, the TGI in the assay on SF-539 CNS is 59.8 µM; in the assay with UO-31 renal it was 25.2 µM; in the assay with SK-MEL-28 melanoma, more than 64.3 µM; in the assay with MOLT-4 leukemia it was more than 67.8 µM.
Consider `Oc1ccccc1/C=N/N1C(=S)N(C23CC4CC(CC(C4)C2)C3)C(=Nc2ccccc2)C1=Nc1ccccc1`, for which the TGI with TK-10 renal, in the assay on NCI-H226 lung, in the assay on SW-620 colon, in the assay with DU-145 prostate, in the assay with SK-MEL-2 melanoma and in the assay with U251 CNS was more than 100 µM each time. Also, the TGI with SF-539 CNS, in the assay on UO-31 renal, with SK-MEL-28 melanoma and with MOLT-4 leukemia was more than 100 µM in each case.
In the case of `O=C(c1ccco1)N(C(=O)N1CCC(c2ccccc2)CC1)c1ccccc1`, the TGI in the assay with TK-10 renal, in the assay with NCI-H226 lung, with SW-620 colon, in the assay with DU-145 prostate, in the assay on SK-MEL-2 melanoma and with U251 CNS was more than 100 µM throughout. The TGI in the assay with SF-539 CNS was more than 100 µM; in the assay with UO-31 renal it was 83.8 µM; in the assay on SK-MEL-28 melanoma it was more than 100 µM; with MOLT-4 leukemia, 54.2 µM.
For the compound `COc1cc2c(cc1OCc1ccccc1)NC(=O)[C@@H]1CCCN1C2=O`, the TGI with TK-10 renal, in the assay on NCI-H226 lung, with SW-620 colon, with DU-145 prostate, in the assay with SK-MEL-2 melanoma and in the assay on U251 CNS was more than 100 µM throughout. The TGI in the assay on SF-539 CNS, in the assay with UO-31 renal, in the assay on SK-MEL-28 melanoma and in the assay on MOLT-4 leukemia was more than 100 µM in each case.
Regarding `Cn1c(=O)cc(NNc2ccc(Cl)c(Cl)c2)[nH]c1=O`, the TGI in the assay on TK-10 renal is 30.6 µM; in the assay on NCI-H226 lung it was 55.9 µM; in the assay on SW-620 colon, 21.1 µM; in the assay on DU-145 prostate it was more than 100 µM; with SK-MEL-2 melanoma, 33.6 µM; in the assay on U251 CNS, 24.8 µM. Besides, the TGI in the assay with SF-539 CNS was 39.7 µM; in the assay with UO-31 renal, 24.4 µM; with SK-MEL-28 melanoma, 25.1 µM; in the assay with MOLT-4 leukemia it was 58.2 µM.
In the case of `NCCCCNCCCN1CCOC1=O`, the TGI in the assay on TK-10 renal, with NCI-H226 lung, in the assay with SW-620 colon, in the assay with DU-145 prostate, in the assay with SK-MEL-2 melanoma and in the assay with U251 CNS was more than 100 µM throughout. For the same compound, the TGI in the assay on SF-539 CNS, with UO-31 renal, in the assay with SK-MEL-28 melanoma and in the assay with MOLT-4 leukemia was more than 100 µM each time.
Take `CSc1ncc2c(n1)-c1ccccc1OC2NC1CC1` (centres undefined): the TGI in the assay with TK-10 renal, in the assay on NCI-H226 lung, in the assay with SW-620 colon, in the assay on DU-145 prostate, in the assay with SK-MEL-2 melanoma and in the assay on U251 CNS was more than 100 µM each time. Also, the TGI with SF-539 CNS, with UO-31 renal and in the assay with MOLT-4 leukemia was more than 100 µM each time.
As to `CCC1([N+](=O)[O-])CN(N=O)C1`, the TGI in the assay with TK-10 renal, with NCI-H226 lung, in the assay on SW-620 colon, in the assay on DU-145 prostate, with SK-MEL-2 melanoma and with U251 CNS was more than 100 µM in each case. Moreover, the TGI with SF-539 CNS, in the assay with UO-31 renal, with SK-MEL-28 melanoma and in the assay with MOLT-4 leukemia was more than 100 µM throughout.
Take `CC1(C)OCC(C2OC(C)(C)OC2[C@H]2O[C@@]3(O)[C@H]4[C@H](C=CC[C@@H]42)[C@@H](OCc2ccccc2)[C@H](OCc2ccccc2)[C@H]3OCc2ccccc2)O1` (some centres undefined): the TGI in the assay with TK-10 renal was more than 100 µM; with NCI-H226 lung, more than 100 µM; with SW-620 colon, more than 100 µM; in the assay on DU-145 prostate it was more than 100 µM; in the assay on SK-MEL-2 melanoma it was 98.5 µM; with U251 CNS it was more than 100 µM. For the same compound, the TGI with SF-539 CNS is more than 100 µM; in the assay on UO-31 renal, 72.3 µM; in the assay on SK-MEL-28 melanoma it was more than 100 µM; in the assay with MOLT-4 leukemia, 44.3 µM.

The record behind these values is PubChem BioAssay (NCI).
